Patent US5658888A, “Erythromycin derivatives” (Chugai Seiyaku Kabushiki Kaisha, priority 1992, dated 1997)
Like-named read-outs stand apart in the source and are kept apart here.

Columns and labels:
motilin receptor = target: T1, motilin receptor (Oryctolagus cuniculus, UniProt G1T803); assay: motilin receptor binding test (displacement of 125I-labelled motilin); set-up: species or system rabbit; conditions: for activity in the hydrochloric acid solution compared with that in the DMSO solution: HCl pH 2.5, 120 min vs. DMSO
T1 construct: From a killed rabbit was removed the duodenum; from tissue; host or cells: rabbit duodenum homogenate (mucous membrane detached from the tunica muscularis, homogenized in 50 mM Tris pH 7.4)
Experimental: A motilin receptor binding test was conducted in the manner described hereunder [V. Bormans, et al., Regul. Peptides, 15, 143 (1986)].
(§1) From a killed rabbit was removed the duodenum, of which the mucous membrane was detached from the tunica muscularis and then homogenized in a 50 mM Tris solution (pH 7.4) to prepare a protein solution. Twenty-five pM of ^125 I-labelled motilin (purchased from Ohtsuka Assay Laboratory) and the protein solution were incubated at 25° C. for 120 minutes, after which the radioactivity of the protein was measured with a γ-ray counter, the difference between the radioactivity observed in the case of non-addition of motilin and that observed in the case of addition of an excess (1×10^-7 m) of motilin being defined as the specific binding capacity. The efficacies of the samples were expressed as IC50 (M), the concentration of each of the test drugs which reduces the specific binding capacity to 50%. The test drug was dissolved in a DMSO solution and added to the protein solution (the final DMSO concentration:1%). In experiments on investigation of the acid resistance, the test drug was dissolved in a hydrochloric acid solution (pH 2.5) which was then allowed to stand at room temperature for 120 minutes prior to its addition to the protein solution for the experiments.

[1] = acid resistance / decomposition by acid; type: physicochemical; conditions: compared with EM-523 / publicly known erythromycin derivatives
Experimental: as §1

[2] = tested on: gastric antrum contractile motility; assay: gastrointestinal motility of the conscious dog (force transducers, intragastric administration); type: in vivo, Beagle dog; conditions: for ED (MI=150): Canis lupus familiaris, po, conscious dog, interdigestive state, gastric antrum, read-out: MI150 (test drug dosage required to provide MI=150); for gastrointestinal contractile activity (in words): administered into the stomach
Experimental: The gastrointestinal motility of the conscious dog was measured according to the method described previously [Itoh, Zen, Journal of the Smooth Muscle Research, 13, 33 (1976)]. Beagle dogs weighing approximately 10 kg were anesthetized with an intravenously (i.v.) injection of pentobarbital sodium and the abdominal cavity was opened under aseptic conditions. Extraluminal force transducers were sutured onto the serosa of the gastric antrum (stomach), duodenum and jejunum in a manner to measure circular muscle contraction. In addition, a Silastic tube [French, size 6.5, Dow Corning, Midland, Mich., U.S.A.) was placed into the stomach for direct administration of test drugs into the stomach. The lead wires of these force transducers and a Silastic tube were led out of the abdominal cavity and through a skin incision made between the scapulae. After the operation, the dogs were housed in individual experimental cages and given commercial dog food once a day.
The gastrointestinal motor activity was recorded on a thermal pen-writing recorder (WR-3101, Graphtec, Tokyo, Japan) by connecting the lead wires of the transducers to the connecting cables from the amplifiers (UG-5, Nihon Kohden, Tokyo, Japan). About 2 weeks postoperatively, gastrointestinal contractile activity could be divided into two main patterns of activity, interdigestive and digestive state. In the interdigestive state, IMC (interdigestive migrating contractions) were seen to occur at regular intervals of 100-120 minutes in the gastric antrum and migrated through the duodenum and jejunum at a constant velocity. In all animals, feeding disrupted the regular IMC pattern. Experiments were carried out during interdigestive state. The test drug was directly injected into the stomach through a Silastic tube placed in the stomach in a volume of 3 ml, 15 min after the end of the IMC in the gastric antrum. Test drugs were dissolved in ethanol, and then diluted with 0.9% physiological saline.
To measure motility quantitatively, the signals from the gastric antrum were relayed to a personal computer (PC-9801, NEC, Tokyo, Japan) every 100 ms. The area surrounded by the contraction waves and the base line, i.e., the product of the amplitude (voltage) and the time in minutes during a certain fixed period, was calculated, expressed as percent of the area assuming that maximum contraction (amplitude) of the interdigestive migrating contraction lasted for 1 min, and used as the motor index (MI) [Inatomi et al., J. Pharmacol. Exp. Ther. 251, 707 (1989)]. The MI, which is calculated in this manner, of the naturally occurred in the gastric antrum is about 100-200. Therefore, the test drug dosage required to provide MI=150 was defined to be MI150 which was used as the index of the stimulating effects or the gastric motility of test drugs.

[3] = background statement; cited from earlier work

T1 sequence (G1T803 1-400): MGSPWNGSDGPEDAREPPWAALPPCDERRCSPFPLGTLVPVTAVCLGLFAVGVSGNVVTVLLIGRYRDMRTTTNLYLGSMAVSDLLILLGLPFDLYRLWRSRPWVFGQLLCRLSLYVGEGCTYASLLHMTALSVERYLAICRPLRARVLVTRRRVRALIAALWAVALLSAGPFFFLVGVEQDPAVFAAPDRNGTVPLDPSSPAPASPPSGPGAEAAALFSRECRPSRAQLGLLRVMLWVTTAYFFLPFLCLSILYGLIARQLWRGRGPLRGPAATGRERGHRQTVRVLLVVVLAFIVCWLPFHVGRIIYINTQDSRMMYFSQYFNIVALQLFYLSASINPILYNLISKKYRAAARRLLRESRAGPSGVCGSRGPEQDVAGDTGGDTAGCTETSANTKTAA

Row | level of activity in DMSO solution (comparison of Compound 6 and EM-523) (motilin receptor) | IC50 (motilin receptor; test drug in DMSO solution (final DMSO 1%), rabbit duodenum, 25 pM 125I-motilin, 25° C., 120 min, pH 7.4, read-out: IC50, Solution in DMSO) [nM] | IC50 (motilin receptor; test drug stood in hydrochloric acid solution (pH 2.5) at room temperature for 120 minutes before the assay, read-out: IC50, Solution in HCl) [nM] | SMILES | activity in the hydrochloric acid solution compared with that in the DMSO solution (motilin receptor) | decomposition by acid (in words) [1] | ED (MI=150) ([2]; intragastric) [µg/kg] | gastrointestinal contractile activity (in words) [2] | contractile activity in the gastric antrum relative to EM-523 ([2]; intragastric, ratio of potency to EM-523) | stability in the presence of an acid (in words) [3]
1 | the same level of activity | 4.1 | 9.1 | CC[C@H]1OC(=O)[C@H](C)[C@@H](O[C@H]2C[C@@](C)(OC)[C@@H](O)[C@H](C)O2)[C@H](C)[C@@H](O[C@@H]2O[C@H](C)C[C@H](N(C)C(C)C)[C@H]2O)[C@@]2(C)CC(C)=C(O2)[C@H](C)C(=O)[C@]1(C)OC [Compound 6, isopropyl-nor-12-O-methyl-11-oxo-8,9-anhydroerythromycin A 6,9-hemiketal] | differing little from the value in the DMSO solution | less decomposable with an acid than is EM-523 | 3.8 | increased gastrointestinal contractile activity | about 4 times | –
2 | the same level of activity | – | – | CC[C@H]1OC(=O)[C@H](C)[C@@H](O[C@H]2C[C@@](C)(OC)[C@@H](O)[C@H](C)O2)[C@H](C)[C@@H](O[C@@H]2O[C@H](C)C[C@H](N(C)CC)[C@H]2O)[C@@]2(C)CC(C)=C(O2)[C@H](C)[C@@H](O)[C@]1(C)O [EM-523, reference compound] | a decrease in the activity to one-100th that in the DMSO solution | – | 14.6 | increased gastrointestinal contractile activity | – | unstable in the presence of an acid
